In patent publication US10624340B2, “Chemical combinations for attracting Vespidae” (priority 2017, dated 2020):
Where “and” joins values, the source holds several entries; their conditions need not be identical. Equal entries are not always repeated.

Tests used:
Format in all cases: in vivo, V. pensylvanica
Vespidae [1] = assay: Box attraction test of single test agents (Example 1); conditions: 500 μL test agent in white box, 15 min tests, two tests, San Mateo County, July 2016; acetic acid 5%, citric acid 750 mM, ethanol 40%
Vespidae [2] = assay: Box attraction test of heptyl butyrate with citric, malic or tartaric acid (Experiment 3); conditions: 500 μL of each agent, white box, 15 min tests, three tests, July 2017, acid alone, heptyl butyrate alone and combination run together, * P < 0.05 vs heptyl butyrate alone
Description: Materials and Methods. The third experiment evaluated combinations of heptyl butyrate and citric acid, malic acid, and tartaric acid versus heptyl butyrate alone as baits for Vespidae.
Attraction Measurements. Testing the efficacy of attraction of the chemicals was conducted using an apparatus that allows visualization of the Vespidae to an area with the attractant. This can be prepared in a variety of ways including the use of white 4-sided boxes in which the different attractants are placed at the bottom of the box. Attraction of the Vespidae to the boxes is visualized and Vespidae are counted when they fly into the plane of the box toward the attractant. Each experiment lasted 15 minutes and every 5 minutes, the boxes would be cleared of Vespidae and rotated counterclockwise to eliminate any possible effect of direction. Each experiment was conducted three times over the course of one day, for a total of 9 replicates per test.
Boxes were prepared using white paper (one foot square) and applying them to equal sizes of cardboard to create a 4-sided box with the white paper in the inside of the box. Boxes were placed in a triangle pattern on the ground and spaced equally three to four feet apart. Disposable plates with clipped-on absorbent material in them were placed in the bottom on the boxes. Each tested combination of attractants was poured onto the absorbent material on the plate and placed into a testing box.
Chemical Treatments. Four chemical treatments were selected and combined with heptyl butyrate and compared to heptyl butyrate alone as baits for Vespidae. Chemicals combined with heptyl butyrate included citric acid solution (5 grams in 50 mLs of water), malic acid (6 grams in 50 mLs of water), and tartaric acid (7 grams in 50 mLs of water). Experiment 3 used 500 μL of each test agent combined for a total of 1000 μL total volume in each test. The heptyl butyrate test used 500 μL of water and 500 µL of heptyl butyrate.

Vespidae [3] = assay: 14-day trapping test in RESCUE Reusable Yellowjacket traps (Experiment 4); conditions: 2 mL heptyl butyrate with or without 2 mL acid solution in trap, hung 14 days, counted day 15
Description: Materials and Methods. The fourth experiment evaluated combinations of heptyl butyrate and citric acid, malic acid, and tartaric acid versus heptyl butyrate alone as baits for Vespidae. Heptyl butyrate was included for comparison because of its known attractiveness to V. pensylvanica (Davis et al., 1969, Supra).
Attraction Measurements. Testing the efficacy of attraction of the chemicals was conducted using four standard commercially-available RESCUE Reusable Yellowjacket® traps filled with the various test agents. In this experiment, the traps were set and hung 5-6 feet off of the ground with all traps separated by 3-4 feet from one another. Chemical treatments were added to the attractant chambers (cotton absorbant material) of the trap and hung for 14 days. Measurements of the number of trapped Vespidae were made on day 15.
Chemical Treatments. Four chemical treatments were selected and combined with heptyl butyrate and compared to heptyl butyrate alone as baits for Vespidae. Chemicals combined with heptyl butyrate included citric acid solution (5 grams in 50 mLs of water), malic acid (6 grams in 50 mLs of water), and tartaric acid (7 grams in 50 mLs of water). Experiment 4 used 2 mL of the standard attractant (heptyl butyrate) as is found in the RESCUE reusable yellowjacket traps for the heptyl butyrate alone test. […]

SMILES	Total Number of Vespidae Attracted to Single Test Agents, Sum Test 1 + 2 (Vespidae [1])	Total Number of Vespidae Attracted to Different Test Conditions (Vespidae [2])	Total Number of V. Pensylvanica (Vespidae) Trapped During a 14-Day Test (Vespidae [3])	Total Number of Vespidae Attracted to Different Test Conditions (Vespidae [2]; listed as heptyl butyrate)
CC(=O)O [Acetic Acid, acetic acid]	2			
CCCC(=O)O [Butyric Acid, butyric acid]	5			
O=C(O)CC(O)(CC(=O)O)C(=O)O [Citric Acid, citric acid]	10	22		
CCO [Ethanol, ethanol]	2			
CCCCCCCOC(=O)CCC [Heptyl Butyrate, heptyl butyrate]	343	355 and 590 and 477	91	477 and 355 and 590
CC(C)CO [Isobutanol, isobutanol]	21			
CC(O)C(=O)O (stereo not shown) [Lactic Acid, lactic acid]	5			
O=C(O)CC(O)C(=O)O (stereo not shown) [Malic Acid, malic acid]		19		
O=C(O)C(O)C(O)C(=O)O (stereo not shown) [Tartaric Acid, tartaric acid]		15		
